Activity calls are given as the source filed them.

The Ki is a measure of affinity in units of concentration, obtained from inhibition or displacement. As usually defined, the IC50 is the concentration that gives 50% inhibition.

The target in assay [1] is Fibroblast growth factor receptor 1 (Homo sapiens, UniProt P11362). Format: functional.
Assay [2] concerns the target STE20-like serine/threonine-protein kinase (Homo sapiens, UniProt Q9H2G2). Format: functional.
Another assay has as its target Misshapen-like kinase 1 (Homo sapiens, UniProt Q8N4C8). Format: functional.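 Further: kinome panel screen with MINK as the panel member.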
Assay [3] addresses Serine/threonine-protein kinase N2 (Homo sapiens, UniProt Q16513). The assay is classed as functional.
Assay [4] deals with Mitogen-activated protein kinase 9 (Homo sapiens, UniProt P45984). Format: functional.
For assay [5], the target named is Maternal embryonic leucine zipper kinase (Homo sapiens, UniProt Q14680). Format: functional.
Assay [6] deals with Vascular endothelial growth factor receptor 2 (Homo sapiens, UniProt P35968). Format: functional.
For the next assay, the target named is Activated CDC42 kinase 1 (Homo sapiens, UniProt Q07912). Kind of assay: Navigating the Kinome. Panel member name: ACK1. The assay is classed as functional.
Activated CDC42 kinase 1, sequence (Q07912 whole entry): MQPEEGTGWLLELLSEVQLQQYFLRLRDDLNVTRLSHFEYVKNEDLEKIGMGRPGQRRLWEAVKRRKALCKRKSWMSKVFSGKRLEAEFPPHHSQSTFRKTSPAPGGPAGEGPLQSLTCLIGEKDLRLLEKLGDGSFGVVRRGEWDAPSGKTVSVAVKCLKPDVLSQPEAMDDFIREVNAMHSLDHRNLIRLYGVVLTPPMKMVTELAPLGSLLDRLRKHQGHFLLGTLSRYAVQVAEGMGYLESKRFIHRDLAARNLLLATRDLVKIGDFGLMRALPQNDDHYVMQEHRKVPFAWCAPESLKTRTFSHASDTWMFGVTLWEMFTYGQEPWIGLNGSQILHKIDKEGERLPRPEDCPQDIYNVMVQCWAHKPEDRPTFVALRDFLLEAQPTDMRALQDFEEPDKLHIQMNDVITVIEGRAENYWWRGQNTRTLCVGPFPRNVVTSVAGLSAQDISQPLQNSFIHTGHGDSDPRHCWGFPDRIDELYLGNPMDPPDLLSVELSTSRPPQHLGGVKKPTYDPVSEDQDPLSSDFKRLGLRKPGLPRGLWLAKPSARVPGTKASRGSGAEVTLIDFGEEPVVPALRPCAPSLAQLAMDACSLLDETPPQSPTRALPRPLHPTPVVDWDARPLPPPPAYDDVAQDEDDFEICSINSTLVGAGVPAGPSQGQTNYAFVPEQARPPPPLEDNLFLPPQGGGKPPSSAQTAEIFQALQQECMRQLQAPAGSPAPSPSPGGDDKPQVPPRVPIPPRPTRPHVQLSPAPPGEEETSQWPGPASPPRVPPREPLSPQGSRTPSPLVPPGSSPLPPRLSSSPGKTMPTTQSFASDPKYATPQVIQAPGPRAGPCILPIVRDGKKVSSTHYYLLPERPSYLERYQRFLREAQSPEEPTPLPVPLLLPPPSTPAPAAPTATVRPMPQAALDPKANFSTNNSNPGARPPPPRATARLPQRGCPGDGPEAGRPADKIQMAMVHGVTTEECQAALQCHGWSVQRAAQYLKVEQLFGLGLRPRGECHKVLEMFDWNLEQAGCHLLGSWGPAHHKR
The target in assay [7] is Calcium/calmodulin-dependent protein kinase type II subunit beta (Homo sapiens, UniProt Q13554). Format: functional.
Calcium/calmodulin-dependent protein kinase type II subunit beta, sequence (Q13554 whole entry): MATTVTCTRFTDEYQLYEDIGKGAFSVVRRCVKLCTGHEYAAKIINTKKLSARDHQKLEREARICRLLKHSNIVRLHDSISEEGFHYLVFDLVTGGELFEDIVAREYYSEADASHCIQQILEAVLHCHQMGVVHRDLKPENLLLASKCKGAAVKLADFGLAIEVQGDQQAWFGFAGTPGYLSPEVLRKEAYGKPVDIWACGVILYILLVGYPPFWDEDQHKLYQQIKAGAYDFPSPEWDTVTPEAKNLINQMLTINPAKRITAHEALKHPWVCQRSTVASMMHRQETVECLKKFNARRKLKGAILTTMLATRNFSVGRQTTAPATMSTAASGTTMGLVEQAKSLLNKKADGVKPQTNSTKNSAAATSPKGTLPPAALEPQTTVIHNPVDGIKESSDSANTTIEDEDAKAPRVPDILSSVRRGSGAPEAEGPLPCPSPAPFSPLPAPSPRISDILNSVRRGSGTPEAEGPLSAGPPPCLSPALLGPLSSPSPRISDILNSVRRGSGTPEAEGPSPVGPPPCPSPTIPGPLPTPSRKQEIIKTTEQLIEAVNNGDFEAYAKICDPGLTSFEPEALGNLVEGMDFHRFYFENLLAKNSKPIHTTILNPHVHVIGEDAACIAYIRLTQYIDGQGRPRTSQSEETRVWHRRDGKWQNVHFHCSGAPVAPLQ
The target in assay [8] is Megakaryocyte-associated tyrosine-protein kinase (Homo sapiens, UniProt P42679). Format: functional.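 Further: affinity measured as one member of a kinase panel (Navigating the Kinome) against MATK.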
For assay [9], the target named is Proto-oncogene tyrosine-protein kinase ROS (Homo sapiens, UniProt P08922). The assay is classed as functional.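 Further: ROS1 tested as one member of a kinome-wide kinase panel.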
Assay [10] concerns the target Glycogen synthase kinase-3 beta (Homo sapiens, UniProt P49841). Format: functional.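 Further: value comes from a broad kinome profiling panel, with GSK3B as the panel member.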
Assay [11] deals with Cyclin-dependent kinase 9 (Homo sapiens, UniProt P50750). Format: functional.
The target of assay [12] is Receptor tyrosine-protein kinase erbB-2 (Homo sapiens, UniProt P04626). Kind of assay: Navigating the Kinome. Panel member name: ERBB2. The assay is classed as functional.
Receptor tyrosine-protein kinase erbB-2, sequence (P04626 whole entry): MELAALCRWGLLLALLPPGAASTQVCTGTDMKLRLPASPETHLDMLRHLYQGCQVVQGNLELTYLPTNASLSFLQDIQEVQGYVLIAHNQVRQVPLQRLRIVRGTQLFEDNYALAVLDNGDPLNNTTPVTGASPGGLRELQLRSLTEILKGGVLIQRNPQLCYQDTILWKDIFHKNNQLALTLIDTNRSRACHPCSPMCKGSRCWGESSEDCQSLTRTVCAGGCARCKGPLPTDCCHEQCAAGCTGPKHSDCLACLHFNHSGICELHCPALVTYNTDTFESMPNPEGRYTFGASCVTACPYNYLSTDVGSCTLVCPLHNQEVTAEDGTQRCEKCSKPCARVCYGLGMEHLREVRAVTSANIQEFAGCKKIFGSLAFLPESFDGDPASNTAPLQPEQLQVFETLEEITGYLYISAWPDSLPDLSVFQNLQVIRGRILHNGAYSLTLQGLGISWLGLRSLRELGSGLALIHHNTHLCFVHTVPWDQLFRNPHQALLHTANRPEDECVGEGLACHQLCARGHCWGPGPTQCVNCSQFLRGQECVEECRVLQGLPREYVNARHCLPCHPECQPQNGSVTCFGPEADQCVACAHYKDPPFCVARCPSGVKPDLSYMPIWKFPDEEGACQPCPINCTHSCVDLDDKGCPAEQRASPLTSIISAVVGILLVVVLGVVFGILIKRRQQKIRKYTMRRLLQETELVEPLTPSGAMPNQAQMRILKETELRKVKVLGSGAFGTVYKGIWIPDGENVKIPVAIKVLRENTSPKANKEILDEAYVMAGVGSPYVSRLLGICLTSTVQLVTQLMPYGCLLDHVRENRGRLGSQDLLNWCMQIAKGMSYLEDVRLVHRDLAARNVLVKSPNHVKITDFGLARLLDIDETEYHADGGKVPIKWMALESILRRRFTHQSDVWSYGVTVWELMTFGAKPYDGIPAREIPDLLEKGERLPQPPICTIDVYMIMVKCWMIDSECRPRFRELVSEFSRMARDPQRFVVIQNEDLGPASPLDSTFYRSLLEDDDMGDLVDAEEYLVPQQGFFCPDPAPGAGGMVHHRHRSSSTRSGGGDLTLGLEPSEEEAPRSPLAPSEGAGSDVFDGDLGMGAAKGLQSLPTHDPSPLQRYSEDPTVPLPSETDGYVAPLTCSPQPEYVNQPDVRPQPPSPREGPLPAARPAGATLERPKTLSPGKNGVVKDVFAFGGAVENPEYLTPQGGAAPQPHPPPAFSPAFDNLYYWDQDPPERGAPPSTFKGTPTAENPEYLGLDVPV
Assay [13] has as its target Tyrosine-protein kinase Fyn (Homo sapiens, UniProt P06241). Format: functional.
Assay [14] addresses Tyrosine-protein kinase ABL1 (Homo sapiens, UniProt P00519). Format: functional.
Assay [15] has as its target Mitogen-activated protein kinase 1 (Homo sapiens, UniProt P28482). The assay is classed as functional.
For assay [16], the target named is G protein-coupled receptor kinase 5 (Homo sapiens, UniProt P34947). Kind of assay: Navigating the Kinome. Panel member name: GPRK5. The assay is classed as functional.
Assay [17] addresses Dual specificity protein kinase CLK2 (Homo sapiens, UniProt P49760). The assay is classed as functional.
The target of assay [18] is RAC-gamma serine/threonine-protein kinase (Homo sapiens, UniProt Q9Y243). The assay is classed as functional.
RAC-gamma serine/threonine-protein kinase, sequence (Q9Y243 whole entry): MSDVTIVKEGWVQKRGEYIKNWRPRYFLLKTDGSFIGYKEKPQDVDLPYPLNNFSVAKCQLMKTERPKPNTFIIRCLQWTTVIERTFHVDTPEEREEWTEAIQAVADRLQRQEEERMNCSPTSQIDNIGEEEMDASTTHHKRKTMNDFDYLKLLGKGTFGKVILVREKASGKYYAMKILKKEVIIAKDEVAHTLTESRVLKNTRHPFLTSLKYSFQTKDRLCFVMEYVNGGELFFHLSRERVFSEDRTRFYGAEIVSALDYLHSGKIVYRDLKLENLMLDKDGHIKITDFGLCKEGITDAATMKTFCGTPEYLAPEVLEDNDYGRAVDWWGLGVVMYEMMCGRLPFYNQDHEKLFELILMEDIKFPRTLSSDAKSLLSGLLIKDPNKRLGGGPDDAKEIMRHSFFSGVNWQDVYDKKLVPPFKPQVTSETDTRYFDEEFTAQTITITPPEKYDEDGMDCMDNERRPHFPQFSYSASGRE
Assay [19] has as its target Dual specificity mitogen-activated protein kinase kinase 1 (Homo sapiens, UniProt Q02750). Kind of assay: Navigating the Kinome. Panel member name: MAP2K1. Format: functional.
The target in assay [20] is Cyclin-dependent kinase 8 (Homo sapiens, UniProt P49336). The assay can be described thus: Navigating the Kinome. Panel member name: CDK8. The assay is classed as functional.
In assay [21] the target is cAMP-dependent protein kinase catalytic subunit alpha (Homo sapiens, UniProt P17612). Format: functional.
Assay [22] concerns the target Serine/threonine-protein kinase PAK 1 (Homo sapiens, UniProt Q13153). The assay is classed as functional.
Assay [23] has as its target Mitogen-activated protein kinase 12 (Homo sapiens, UniProt P53778). The assay is classed as functional.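 Further: measured as one member of a kinome-wide kinase profiling panel.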
For assay [24], the target named is Serine/threonine-protein kinase MRCK alpha (Homo sapiens, UniProt Q5VT25). Format: functional.
Assay [25] addresses Serine/threonine-protein kinase PLK1 (Homo sapiens, UniProt P53350). The assay is classed as functional.
The target in assay [26] is Serine/threonine-protein kinase D2 (Homo sapiens, UniProt Q9BZL6). Format: functional.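 Further: measured against PRKD2 as one member of a kinome-wide kinase profiling panel.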
The target in assay [27] is Serine/threonine-protein kinase DCLK1 (Homo sapiens, UniProt O15075). The assay is classed as functional.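 Further: affinity for DCLK1 (listed as DCAMKL1) measured as one member of a kinome-wide kinase profiling panel.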
In assay [28] the target is Serine/threonine-protein kinase pim-3 (Homo sapiens, UniProt Q86V86). The assay is classed as functional.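 Further: value obtained as one member of a broad kinase panel profiling effort.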
In assay [29] the target is Dual specificity tyrosine-phosphorylation-regulated kinase 1A (Homo sapiens, UniProt Q13627). Format: functional.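 Further: measured against DYRK1A as one member of a broad kinome profiling panel.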
Assay [30] concerns the target Cyclin-dependent kinase 2 (Homo sapiens, UniProt P24941). Format: functional.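 Further: CDK2 measured as one member of a broad kinome profiling panel.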
For assay [31], the target named is Testis-specific serine/threonine-protein kinase 1 (Homo sapiens, UniProt Q9BXA7). Format: functional.
Assay [32] concerns the target Calcium/calmodulin-dependent protein kinase type II subunit alpha (Homo sapiens, UniProt Q9UQM7). Kind of assay: Navigating the Kinome. Panel member name: CAMK2A. Format: functional.
Assay [33] addresses Death-associated protein kinase 3 (Homo sapiens, UniProt O43293). Format: functional.
Another assay deals with Aurora kinase A (Homo sapiens, UniProt O14965). The assay is classed as functional.
Assay [34] addresses Dual specificity tyrosine-phosphorylation-regulated kinase 1B (Homo sapiens, UniProt Q9Y463). Kind of assay: Navigating the Kinome. Panel member name: DYRK1B. Format: functional.
For assay [35], the target named is T1, Tyrosyl-DNA phosphodiesterase 2 (Homo sapiens, UniProt O95551).
T1 sequence (O95551 whole entry): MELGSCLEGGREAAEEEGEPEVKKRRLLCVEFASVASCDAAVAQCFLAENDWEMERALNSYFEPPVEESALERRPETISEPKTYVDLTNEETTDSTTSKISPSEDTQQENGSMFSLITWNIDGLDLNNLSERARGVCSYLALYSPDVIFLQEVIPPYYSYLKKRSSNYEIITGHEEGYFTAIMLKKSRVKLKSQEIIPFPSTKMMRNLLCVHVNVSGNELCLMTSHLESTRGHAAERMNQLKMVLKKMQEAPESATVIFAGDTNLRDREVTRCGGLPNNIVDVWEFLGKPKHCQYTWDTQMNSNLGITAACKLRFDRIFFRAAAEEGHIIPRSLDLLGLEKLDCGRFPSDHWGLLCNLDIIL
The assay can be described thus: potency against TDP2 phosphodiesterase activity – biochemical, epi absorbance, IC50, dose response (AID 743297).

Serine/threonine-protein kinase PAK 1, sequence (Q13153 whole entry): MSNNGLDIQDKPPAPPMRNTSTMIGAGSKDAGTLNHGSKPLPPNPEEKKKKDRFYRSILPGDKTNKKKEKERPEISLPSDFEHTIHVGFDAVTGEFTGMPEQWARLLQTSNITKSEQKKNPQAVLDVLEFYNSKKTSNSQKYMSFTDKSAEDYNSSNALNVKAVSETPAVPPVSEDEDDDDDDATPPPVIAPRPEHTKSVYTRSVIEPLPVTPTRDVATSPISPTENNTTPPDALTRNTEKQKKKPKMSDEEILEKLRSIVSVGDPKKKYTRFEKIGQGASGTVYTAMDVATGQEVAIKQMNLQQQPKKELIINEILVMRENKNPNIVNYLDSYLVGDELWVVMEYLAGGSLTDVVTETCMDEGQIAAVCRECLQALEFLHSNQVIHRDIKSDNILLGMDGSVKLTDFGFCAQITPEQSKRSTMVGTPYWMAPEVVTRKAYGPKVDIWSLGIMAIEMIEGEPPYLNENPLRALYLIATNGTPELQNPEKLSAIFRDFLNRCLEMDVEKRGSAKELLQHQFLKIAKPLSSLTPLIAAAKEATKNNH
Dual specificity protein kinase CLK2, sequence (P49760 whole entry): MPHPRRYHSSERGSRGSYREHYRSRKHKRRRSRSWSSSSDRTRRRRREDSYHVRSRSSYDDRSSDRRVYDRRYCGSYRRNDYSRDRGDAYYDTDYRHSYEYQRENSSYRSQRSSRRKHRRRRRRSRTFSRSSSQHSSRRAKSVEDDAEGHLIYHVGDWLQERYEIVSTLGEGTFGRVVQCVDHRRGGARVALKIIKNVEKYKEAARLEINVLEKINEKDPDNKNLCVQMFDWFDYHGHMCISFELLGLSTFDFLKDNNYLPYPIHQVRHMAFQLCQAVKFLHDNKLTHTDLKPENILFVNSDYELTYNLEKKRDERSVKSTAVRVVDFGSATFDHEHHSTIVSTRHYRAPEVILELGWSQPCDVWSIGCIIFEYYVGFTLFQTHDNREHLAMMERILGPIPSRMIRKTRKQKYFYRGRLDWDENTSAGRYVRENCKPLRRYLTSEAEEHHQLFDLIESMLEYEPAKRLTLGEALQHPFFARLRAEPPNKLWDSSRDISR
Glycogen synthase kinase-3 beta, sequence (P49841 whole entry): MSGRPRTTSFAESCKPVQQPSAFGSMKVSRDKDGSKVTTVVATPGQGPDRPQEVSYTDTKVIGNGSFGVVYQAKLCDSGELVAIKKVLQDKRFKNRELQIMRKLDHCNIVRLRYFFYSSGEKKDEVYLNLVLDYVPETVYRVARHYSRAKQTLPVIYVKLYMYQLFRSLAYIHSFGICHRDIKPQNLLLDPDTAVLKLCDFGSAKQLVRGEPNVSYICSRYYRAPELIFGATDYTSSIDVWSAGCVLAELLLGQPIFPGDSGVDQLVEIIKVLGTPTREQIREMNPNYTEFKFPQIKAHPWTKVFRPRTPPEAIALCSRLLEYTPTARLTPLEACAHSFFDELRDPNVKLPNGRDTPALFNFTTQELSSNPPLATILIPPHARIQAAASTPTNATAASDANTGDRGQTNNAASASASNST

On to `Clc1cc(NC2CCCCC2)nc(-c2c[nH]c3ncccc23)n1`, for which the Ki in assay [1] was > 3980 nM (inactive); in assay [2], 501 nM (active); at Misshapen-like kinase 1 it was 6.31 nM (active); in assay [3], 126 nM (active); in [4] it was 3160 nM (active); in assay [5], 316 nM (active). Further, the Ki in [6] was > 2000 nM (inactive); on Activated CDC42 kinase 1, > 3980 nM (inactive); in assay [7] it was 3160 nM (active); in assay [8], > 2000 nM (inactive); in assay [9], 200 nM (active); in assay [10], 1260 nM (active). Further, the Ki in assay [11] is > 3980 nM (inactive); in assay [12] it was > 1580 nM (inactive); in assay [13], > 794 nM (inactive); in assay [14], > 631 nM (inactive); in assay [15] it was 7940 nM (active); in assay [16], > 3980 nM (inactive). For the same compound, the Ki was > 3160 nM (inactive) in [17]; > 10000 nM (inactive) in assay [18]; 251 nM (active) in assay [19]; 3160 nM (active) in assay [20]; 398 nM (active) in [21]; 1580 nM (active) in [22]. Further, the inhibition constant (Ki) in assay [23] is 3980 nM (active); in [24], 39.8 nM (active); in assay [25] it was 501 nM (active); in assay [26], 1580 nM (active); in assay [27] it was > 10000 nM (inactive); in assay [28], 6310 nM (active). Further, the Ki was 631 nM (active) in [29]; > 1580 nM (inactive) in [30]; 251 nM (active) in assay [31]; > 3160 nM (inactive) in [32]; 2510 nM (active) in [33]; > 1580 nM (inactive) on Aurora kinase A. For the same compound, the Ki in assay [34] is 501 nM (active).
Regarding `Cc1ccc(/C=C2/C(=O)c3ccc(C(=O)O)cc3C2=O)o1`, the IC50 in assay [35] is > 128000 nM (inactive).

(Values after ChEMBL document CHEMBL1201862, “PubChem BioAssay data set” (2004).)
